Measured values as given in PubChem BioAssay AID398.

Molecular target: 11-beta-hydroxysteroid dehydrogenase 1 (Homo sapiens) (UniProt P28845)
Test: HSD11B1 binders by thermal stabilization, biophysical, DSF, SYPRO orange, purified protein (AID 398)
Details: protein 3 µM, buffer 10 mM HEPES, pH 7.5, NaCl 150 mM, stronger effect = higher value

Chain of 11-beta-hydroxysteroid dehydrogenase 1 (Homo sapiens) (P28845 whole entry, looked up): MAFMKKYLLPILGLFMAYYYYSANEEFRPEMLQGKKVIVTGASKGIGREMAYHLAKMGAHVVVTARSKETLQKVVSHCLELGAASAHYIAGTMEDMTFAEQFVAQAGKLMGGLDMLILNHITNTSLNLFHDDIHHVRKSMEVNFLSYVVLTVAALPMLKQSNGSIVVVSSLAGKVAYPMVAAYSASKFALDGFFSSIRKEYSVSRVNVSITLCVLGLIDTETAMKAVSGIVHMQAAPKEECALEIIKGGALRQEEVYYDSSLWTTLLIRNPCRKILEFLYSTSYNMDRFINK

NC(=O)c1ccc[n+](C2OC(COP(=O)(O)OP(=O)(O)OCC3OC(n4cnc5c(N)ncnc54)C(OP(=O)(O)O)C3O)C(O)C2O)c1 (stereo unspecified)
Tm shift (at 40 µM): 5.7 Celsius
Tm shift (measured here: second DSF experiment, at 40 µM, run 2, at 40 µM): 2.6 Celsius

COC(=O)[C@H](C)CO
Tm shift (at 10 µM, NADP 100 µM): 6.7 Celsius

CC(C)(COP(=O)(O)OP(=O)(O)OCC1OC(n2cnc3c(N)ncnc32)C(O)C1OP(=O)(O)O)C(O)C(=O)NCCC(=O)NCCSC(=O)CCC(=O)O (stereo unspecified)
Tm shift (at 10 µM, NADP 100 µM): 2.7 Celsius

CC(C)(COP(=O)(O)OP(=O)(O)OCC1OC(n2cnc3c(N)ncnc32)C(O)C1OP(=O)(O)O)C(O)C(=O)NCCC(=O)NCCSC(=O)Cc1ccccc1 (stereo unspecified)
Tm shift (at 10 µM, NADP 100 µM): 3.6 Celsius

C=CC1=C(C)/C(=C/c2[nH]c(Cc3[nH]c(/C=C4\NC(=O)C(C)=C4C=C)c(C)c3CCC(=O)O)c(CCC(=O)O)c2C)NC1=O
Tm shift (at 10 µM, NADP 100 µM): 3.9 Celsius
